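Values below derive from 48-hour exposures of cells grown in 96-well plates, with endpoints linearly interpolated between the two concentrations bracketing the appropriate inhibition level. Here, GI50 denotes the concentration required for 50% inhibition of growth. Definition used: TGI = concentration required for complete inhibition of growth.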
Assays:
Assay in all cases: NCI anticancer screen, dose series, 48 h
MOLT-4 leukemia = tested on: MOLT-4 leukemia
SK-MEL-5 melanoma = tested on: SK-MEL-5 melanoma
NCI-H522 lung = tested on: NCI-H522 lung
NCI/ADR-RES ovarian = tested on: NCI/ADR-RES ovarian
OVCAR-5 ovarian = tested on: OVCAR-5 ovarian
HOP-92 NSCLC = tested on: HOP-92 NSCLC
K-562 leukemia = tested on: K-562 leukemia
SNB-19 CNS = tested on: SNB-19 CNS
UACC-257 melanoma = tested on: UACC-257 melanoma
UO-31 renal = tested on: UO-31 renal
MDA-MB-231 breast = tested on: MDA-MB-231 breast
SK-MEL-28 melanoma = tested on: SK-MEL-28 melanoma
OVCAR-3 ovarian = tested on: OVCAR-3 ovarian
SF-539 CNS = tested on: SF-539 CNS
T-47D breast = tested on: T-47D breast
RPMI-8226 leukemia = tested on: RPMI-8226 leukemia
HCT-116 colon = tested on: HCT-116 colon
SW-620 colon = tested on: SW-620 colon
A498 renal = tested on: A498 renal
MALME-3M melanoma = tested on: MALME-3M melanoma
BT-549 breast = tested on: BT-549 breast
786-0 renal = tested on: 786-0 renal
RXF 393 renal = tested on: RXF 393 renal
DU-145 prostate = tested on: DU-145 prostate
HCT-15 colon = tested on: HCT-15 colon
HCC-2998 colon = tested on: HCC-2998 colon
UACC-62 melanoma = tested on: UACC-62 melanoma
TK-10 renal = tested on: TK-10 renal
COLO 205 colon = tested on: COLO 205 colon
MCF7 breast = tested on: MCF7 breast
SK-MEL-2 melanoma = tested on: SK-MEL-2 melanoma
SF-268 CNS = tested on: SF-268 CNS
KM12 colon = tested on: KM12 colon
EKVX NSCLC = tested on: EKVX NSCLC
ACHN renal = tested on: ACHN renal
OVCAR-8 ovarian = tested on: OVCAR-8 ovarian
HT29 colon = tested on: HT29 colon
MDA-MB-435 = tested on: MDA-MB-435
SN12C renal = tested on: SN12C renal
M14 melanoma = tested on: M14 melanoma
NCI-H23 lung = tested on: NCI-H23 lung
SR leukemia = tested on: SR leukemia
HOP-62 NSCLC = tested on: HOP-62 NSCLC
U251 CNS = tested on: U251 CNS
HS 578T breast = tested on: HS 578T breast
A549 NSCLC = tested on: A549 NSCLC
SK-OV-3 ovarian = tested on: SK-OV-3 ovarian
PC-3 prostate = tested on: PC-3 prostate
CAKI-1 renal = tested on: CAKI-1 renal
CCRF-CEM leukemia = tested on: CCRF-CEM leukemia
SNB-75 CNS = tested on: SNB-75 CNS
NCI-H460 lung = tested on: NCI-H460 lung

COc1cccc(/C=C/C(=O)c2ccc(SC)cc2)c1OC
GI50 (MOLT-4 leukemia): 8.11 µM
TGI (MOLT-4 leukemia): 61.6 µM
GI50 (SK-MEL-5 melanoma): 16.4 µM
TGI (SK-MEL-5 melanoma): 30.3 µM
GI50 (NCI-H522 lung): 19.2 µM
TGI (NCI-H522 lung): 38.9 µM
GI50 (NCI/ADR-RES ovarian): 16.2 µM
TGI (NCI/ADR-RES ovarian): 38.5 µM
GI50 (OVCAR-5 ovarian): 18.7 µM
TGI (OVCAR-5 ovarian): 34.2 µM
GI50 (HOP-92 NSCLC): 21.6 µM
TGI (HOP-92 NSCLC): 54.1 µM
GI50 (K-562 leukemia): 4.97 µM
TGI (K-562 leukemia): 64.2 µM
GI50 (SNB-19 CNS): 16.2 µM
TGI (SNB-19 CNS): 32 µM
GI50 (UACC-257 melanoma): 15.7 µM
TGI (UACC-257 melanoma): 29.3 µM
GI50 (UO-31 renal): 17 µM
TGI (UO-31 renal): 31.1 µM
GI50 (MDA-MB-231 breast): 17.3 µM
TGI (MDA-MB-231 breast): 36.4 µM
GI50 (SK-MEL-28 melanoma): 20 µM
TGI (SK-MEL-28 melanoma): 36.7 µM
GI50 (OVCAR-3 ovarian): 16.4 µM
TGI (OVCAR-3 ovarian): 32 µM
GI50 (SF-539 CNS): 20 µM
TGI (SF-539 CNS): 39.6 µM
GI50 (T-47D breast): 11.6 µM
TGI (T-47D breast): 35.2 µM
GI50 (RPMI-8226 leukemia): 5.6 µM
TGI (RPMI-8226 leukemia): > 100 µM
GI50 (HCT-116 colon): 4.35 µM
TGI (HCT-116 colon): 15.4 µM
GI50 (SW-620 colon): 18.8 µM
TGI (SW-620 colon): 35.7 µM
GI50 (A498 renal): 11.3 µM
TGI (A498 renal): 23.8 µM
GI50 (MALME-3M melanoma): 16.7 µM
TGI (MALME-3M melanoma): 34.7 µM
GI50 (BT-549 breast): 20.8 µM
TGI (BT-549 breast): 40.5 µM
GI50 (786-0 renal): 14.2 µM
TGI (786-0 renal): 28.2 µM
GI50 (RXF 393 renal): 3.9 µM
TGI (RXF 393 renal): 11.7 µM
GI50 (DU-145 prostate): 20.4 µM
TGI (DU-145 prostate): 40.6 µM
GI50 (HCT-15 colon): 10.4 µM
TGI (HCT-15 colon): 30.3 µM
GI50 (HCC-2998 colon): 16.8 µM
TGI (HCC-2998 colon): 30.4 µM
GI50 (UACC-62 melanoma): 10.8 µM
TGI (UACC-62 melanoma): 23.8 µM
GI50 (TK-10 renal): 22.5 µM
TGI (TK-10 renal): 49.5 µM
GI50 (COLO 205 colon): 22.6 µM
TGI (COLO 205 colon): 45 µM
GI50 (MCF7 breast): 11 µM
TGI (MCF7 breast): 35.8 µM
GI50 (SK-MEL-2 melanoma): 23.3 µM
TGI (SK-MEL-2 melanoma): 40.7 µM
GI50 (SF-268 CNS): 20.2 µM
TGI (SF-268 CNS): 42.3 µM
GI50 (KM12 colon): 16.6 µM
TGI (KM12 colon): 33.4 µM
GI50 (EKVX NSCLC): 18.8 µM
TGI (EKVX NSCLC): 35.6 µM
GI50 (ACHN renal): 17.2 µM
TGI (ACHN renal): 33.7 µM
GI50 (OVCAR-8 ovarian): 12.7 µM
TGI (OVCAR-8 ovarian): 25.6 µM
GI50 (HT29 colon): 9.97 µM
TGI (HT29 colon): 48.8 µM
GI50 (MDA-MB-435): 17.8 µM
TGI (MDA-MB-435): 35.3 µM
GI50 (SN12C renal): 14.7 µM
TGI (SN12C renal): 29.2 µM
GI50 (M14 melanoma): 17.2 µM
TGI (M14 melanoma): 31.1 µM
GI50 (NCI-H23 lung): 14.6 µM
TGI (NCI-H23 lung): 28.2 µM
GI50 (SR leukemia): 4.43 µM
TGI (SR leukemia): 79.5 µM
GI50 (HOP-62 NSCLC): 19.3 µM
TGI (HOP-62 NSCLC): 34.2 µM
GI50 (U251 CNS): 10.4 µM
TGI (U251 CNS): 24 µM
GI50 (HS 578T breast): 25.3 µM
TGI (HS 578T breast): 56.6 µM
GI50 (A549 NSCLC): 12.1 µM
TGI (A549 NSCLC): 25.5 µM
GI50 (SK-OV-3 ovarian): 23.5 µM
TGI (SK-OV-3 ovarian): 40.6 µM
GI50 (PC-3 prostate): 17 µM
TGI (PC-3 prostate): 43.8 µM
GI50 (CAKI-1 renal): 18.4 µM
TGI (CAKI-1 renal): 35.9 µM
GI50 (CCRF-CEM leukemia): 14.2 µM
TGI (CCRF-CEM leukemia): 97.5 µM
GI50 (SNB-75 CNS): 14.6 µM
TGI (SNB-75 CNS): 30.7 µM
GI50 (NCI-H460 lung): 17.9 µM
TGI (NCI-H460 lung): 36.2 µM
